# Results reported in ChEMBL document CHEMBL1138864, “Synthesis of novel caspase inhibitors for characterization of the active caspase proteome in vitro and in vivo” (J Med Chem, 2006).
# Calls of active or inactive are those of the source. The rule behind the calls is not given here.
# Experiments:
# Jurkat [1] = experiment: Inhibition of etoposide-induced apoptosis in human Jurkat T cells at 1 uM; format: functional, cell-based
# Jurkat [2] = experiment: Inhibition of etoposide-induced apoptosis in human Jurkat T cells at 10 uM; format: functional, cell-based
smiles,measurement,setting,value
Cc1cccc(C)c1C(=O)OCC(=O)[C@H](CC(=O)O)NC(=O)[C@H](CCCCNc1ccc([N+](=O)[O-])cc1[N+](=O)[O-])NC(=O)[C@H](CCC(=O)O)NC(=O)OCc1ccccc1,Activity,Jurkat [1],Active
same,Activity,Jurkat [2],Active
